{"source": "patent US20260108529A1", "about": "“FUSED AMINO PYRIMIDINE COMPOUNDS FOR TREATMENT OF TINNITUS, ACUTE SENSORINEURAL HEARING LOSS, AGE-RELATED HEARING LOSS, AND MENIERE'S DISEASE” (Ovid Therapeutics Inc., priority 2024, published 2026)", "biological_target": "T1, KCC2 (Homo sapiens, UniProt Q9H2X9)", "T1 construct": "expressed in transfected cells; host or cells: HEK-293 (ATCC CRL-1573)", "T1 sequence (Q9H2X9 1-1116 isoform Q9H2X9-2)": "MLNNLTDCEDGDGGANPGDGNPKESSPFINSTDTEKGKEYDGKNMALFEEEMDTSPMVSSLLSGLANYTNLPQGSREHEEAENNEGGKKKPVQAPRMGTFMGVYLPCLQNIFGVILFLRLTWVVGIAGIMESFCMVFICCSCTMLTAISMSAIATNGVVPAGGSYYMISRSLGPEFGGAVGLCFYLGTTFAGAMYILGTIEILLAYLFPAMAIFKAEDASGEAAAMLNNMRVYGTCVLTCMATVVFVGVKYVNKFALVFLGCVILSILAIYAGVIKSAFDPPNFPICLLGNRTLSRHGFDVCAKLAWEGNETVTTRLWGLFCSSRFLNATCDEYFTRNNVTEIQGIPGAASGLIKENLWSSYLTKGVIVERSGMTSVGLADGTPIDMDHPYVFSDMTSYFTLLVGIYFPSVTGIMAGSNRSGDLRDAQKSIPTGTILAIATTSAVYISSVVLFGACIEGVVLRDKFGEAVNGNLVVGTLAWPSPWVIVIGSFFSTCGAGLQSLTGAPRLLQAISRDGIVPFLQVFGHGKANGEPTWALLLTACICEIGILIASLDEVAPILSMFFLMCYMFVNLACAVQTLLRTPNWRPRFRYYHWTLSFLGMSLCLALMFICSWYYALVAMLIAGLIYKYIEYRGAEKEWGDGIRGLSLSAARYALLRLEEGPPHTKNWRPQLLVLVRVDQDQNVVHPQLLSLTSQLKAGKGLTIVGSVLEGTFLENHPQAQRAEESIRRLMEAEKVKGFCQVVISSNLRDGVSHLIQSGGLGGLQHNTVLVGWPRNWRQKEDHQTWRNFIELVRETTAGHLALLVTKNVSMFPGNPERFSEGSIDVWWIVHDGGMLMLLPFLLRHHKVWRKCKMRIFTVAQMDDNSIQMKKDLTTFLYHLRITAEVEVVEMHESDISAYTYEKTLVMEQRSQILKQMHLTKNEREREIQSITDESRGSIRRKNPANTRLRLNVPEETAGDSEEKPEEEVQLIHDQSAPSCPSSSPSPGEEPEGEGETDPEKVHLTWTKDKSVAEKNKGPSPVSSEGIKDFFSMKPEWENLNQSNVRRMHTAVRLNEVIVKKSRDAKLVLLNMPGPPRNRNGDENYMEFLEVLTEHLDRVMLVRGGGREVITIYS", "assay": "Biotinylation, plasma membrane level of KCC2 in HEK-293 cells", "type": "cell-based", "details": "15 min, surface/total KCC2", "description": "Cell Culture and biotinylation. HEK-293 cells were purchased from ATCC (CRL-1573) and transfected with human KCC2 and GFP expression plasmids using Lipofectamine 2000. Cells were utilized for experimentation 48-72 h following transfection. Cells were biotinylated at 4° C. using NHS-Biotin. Following lysis and purification on immobilized avidin beads, cell surface and total fractions were subject to immunoblotting as outlined previously (Conway et al., 2017, supra).\nThe reliability of the biotinylation procedure was assessed via immunoblotting with antibodies against the cytosolic protein actin. Actin was present in the total lysates but was absent from the surface fractions (FIG. 2C)."}
{"smiles": "C[C@@H]1CN(c2nc3c(c(Nc4ccc(C5CCCCC5)cc4)n2)COC3)CCO1", "note": "[Compound A, (R)—N-(4-cyclohexylphenyl)-2-(2-methylmorpholino)-5,7-dihydrofuro[3,4-d]pyrimidin-4-amine]", "values": [{"measurement": "level of KCC2 on the plasma membrane", "setting": "0.3 μM", "result": "94.5±8.4 % of control"}, {"measurement": "level of KCC2 on the plasma membrane", "setting": "3 μM", "result": "104.7±8.4 % of control"}]}
